Values quoted from earlier work, collected in US20070098643A1, “Oligomers of gadolinium chelates, their applicationascontrast products in magnetic resonance imaging and their synthesis intermediates” (priority 2002, published 2007).

What was measured:
[1] = system: benign and malignant breast tumors; details: in this model; Daldrup-Link et al. 2000
[2] = in vivo

- C5/C0 ratio [2]: 21%
- distribution volume [2]: 130 mL/kg
- plasma half-life [2]: 37 min
- total plasma clearance [2]: 8.1 mL/min/kg
Substance: Gadomer-17
- differentiation of benign from malignant tumors in MRI [1]: does not allow such a differentiation
